Experimental data published in article PMC7821381, “Multi-Targeted Anticancer Activity of Imidazolate Phosphane Gold(I) Compounds by Inhibition of DHFR and TrxR in Breast Cancer Cells” (Frontiers in Chemistry, 2021).
Read-outs that look alike come from different tables or passages of the source.

Experiments:
A17 cells = assay: MTT cell viability assay on A17 cells; format: cell-based, murine; details: A17, 48 h, ± S. D.
From the text: Human MDA-MB-231 (ER–/PR–/HER2–) and SK-BR-3 (ER–/PR–/HER2+) cells were obtained from American Type Culture Collection (Rockville, MD) and cultured in Dulbecco's Modified Essential Medium (DMEM, Gibco, Life Technologies) supplemented with 10% fetal bovine serum (FBS, Gibco, Life Technologies) and 1% penicillin–streptomycin (Gibco, Life Technologies). A17 cells were established from a spontaneous lobular carcinoma that arose in an FVB/neuT mouse (Galiè et al., [2005]), and maintained in DMEM plus 20% FBS and 1% penicillin-streptomycin. Cells were cultured at 37°C under humidified atmosphere with 5% CO2.
Stock solutions were prepared for each gold(I) compound (50 mM) using dimethyl sulfoxide (DMSO) (Sigma-Aldrich) as solvent. The effects of gold(I) compounds on SKBR3, A17 and MDA-MB231 cells viability were evaluated by seeding, respectively, 10, ^*10^3, 2.5 ^*10^3, 7, ^*10^3 cells/well in 96 wells plates in complete medium (DMEM supplemented with FBS) and compared to those of cisplatin. The day after, fresh medium containing vehicle alone (DMSO, 1 % v/v final concentration) or increasing concentrations of each compound ranging from 0.1 to 100 μM was added. Cell viability was determined using a MTT [3-(4,5-dimethylthiazol-2-yl)-2,5-diphenyl-2H-tetrazolium bromide Sigma Aldrich, St. Louis, MO] assay, which is based on the conversion of MTT to formazan crystals by mitochondrial enzymes, after 24, 48, and 72 h. The formazan deposits were dissolved in DMSO and the absorbance of each well was measured at 540 nm in Multiskan Ascent 96/384 Plate Reader. Each drug concentration was evaluated with 8 replicates and each experiment was repeated three times. At the end of the experiments a dose–response curve was plotted, and the IC50 concentrations were determined. […] Quantitative data are presented as means ± SEM. […]
IC50 values were calculated for each of the cell lines tested, by fitting the concentration-effect curves data obtained in the three experiments with the sigmoid-Emax model using nonlinear regression, weighted by the reciprocal of the square of the predicted effect.

[1] = test system: thioredoxin reductase (TrxR); details: MDA-MB231, 12 h treatment, 16 μM (maximum inhibition); control 3.01 ± 0.01
Procedure: (§1) The assay was performed as previously reported (Galassi et al., [2012]) in 0.2 M Na, K-phosphate buffer (pH 7.4) containing 2 mM EDTA. The assay contained 0.12 mM NADPH and different amounts of cell lysate. The reaction was initiated by the addition of 3 mM 5,5′-dithiobis (2-nitrobenzoic acid) (DTNB) and the increase of absorbance was monitored at 412 nm over 5 min at 25°C.
Fig. 4S. Effects of gold(I) compounds 5 and 6 on redox enzyme thioredoxine reductase in MDA-MB231 cancer cells. The cells were incubated for 12 hours with different amount of tested compounds 5 and 6. After incubation, cells were washed twice with PBS and lysed. TrxR activity was tested by measuring NADPH-dependent reduction of DTNB (Galassi et al, 2012).

[2] = test system: thioredoxin reductase (TrxR); details: for Specific enzymatic activity of TrxR: SKBR3, 12 h treatment, 8 μM (maximum inhibition), control 4.07 ± 0.32; for TrxR residual activity: SKBR3 cells, versus control cells
Procedure: as §1

EB-ct-DNA = assay: Competitive binding fluorescence study with EtBr (EB-ct-DNA); set-up: species or system calf; details: competitive EtBr displacement, fluorescence quenching, pH 7.4
From the text: EtBr weakly emits fluorescence in aqueous solutions (Pasternack et al., [1983]), however in presence of ct-DNA strongly emits at ~600 nm due to strong intercalation between adjacent DNA base pairs. Ethidium bromide (EB) can be employed as a probe for the spectroscopic study of the interaction between DNA and intercalating species because of a 24-fold decrease in its fluorescence when displaced from an intercalation site by the addition of a competitive binding molecule probably due to decreasing in the number of binding sites accessible to EtBr (Tong et al., [2012]). […] Fluorescence quenching spectra were recorded using a Hitachi 4,500 spectrofluorometer with an excitation wavelength of 490 nm and emission spectrum 500–700 nm. The fluorescence spectra were recorded and the fluorescence value of the decrease in emission spectra was corrected according to the relationship:
where Fc and Fm are the corrected and measured fluorescence, respectively. A1 and A2 are the absorbance of tested compounds at the exciting and emission wavelengths. For fluorescence quenching experiments, Stern-Volmer's equation was used (Equation 3): […]

Human apoTF (ATF) = target: T1, Human apoTF (ATF) (Homo sapiens, UniProt P02787); assay: Transferrin (ATF) fluorescence quenching; format: binding; details: Stern-Volmer constant, Tris-HCl pH 7.4, 25°C
T1 construct: purchased Sigma Aldrich
T1 sequence (P02787 20-698): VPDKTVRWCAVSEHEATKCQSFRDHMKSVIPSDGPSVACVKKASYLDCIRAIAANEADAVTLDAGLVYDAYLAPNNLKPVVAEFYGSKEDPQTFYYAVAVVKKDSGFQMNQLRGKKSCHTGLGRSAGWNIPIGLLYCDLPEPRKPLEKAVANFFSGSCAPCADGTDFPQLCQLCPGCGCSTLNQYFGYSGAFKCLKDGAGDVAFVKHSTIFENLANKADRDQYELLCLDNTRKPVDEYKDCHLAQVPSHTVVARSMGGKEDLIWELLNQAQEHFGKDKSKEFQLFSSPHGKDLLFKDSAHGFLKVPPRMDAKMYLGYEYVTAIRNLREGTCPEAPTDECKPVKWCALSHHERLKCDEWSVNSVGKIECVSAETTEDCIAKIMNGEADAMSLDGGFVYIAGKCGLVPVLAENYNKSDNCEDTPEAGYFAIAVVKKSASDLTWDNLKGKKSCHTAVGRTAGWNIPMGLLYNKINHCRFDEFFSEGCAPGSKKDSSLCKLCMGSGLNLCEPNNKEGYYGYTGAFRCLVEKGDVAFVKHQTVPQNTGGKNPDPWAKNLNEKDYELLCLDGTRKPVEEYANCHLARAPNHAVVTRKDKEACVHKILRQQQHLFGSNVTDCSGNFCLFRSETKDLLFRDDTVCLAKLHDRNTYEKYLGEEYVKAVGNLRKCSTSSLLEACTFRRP
Procedure: Human apoTF (ATF) was purchased from Sigma Aldrich and its concentration was determined by measuring the absorbance at 278 nm (ε = 92,300 M^−1 cm^−1). To evaluate if compounds 5 and 6 were able to bind to ATF in vitro, fluorescence spectra were recorded from 300 nm to 450 nm upon tryptophan excitation at 285 nm. Fluorimetric titrations were performed by titrating a 2 mL sample (prepared in 10 mM Tris-HCl buffer pH 7.4, 10 mM NaCl) containing human ATF (12.5 μM) with incremental additions of different aliquots of gold-complexes (5 mM in DMSO). Protein fluorescence intensity was recorded after each successive addition of complex solution and equilibration (5 min). The value of Stern Volmer constants of the different metal complexes to ATF were evaluated following Equation 3 and fluorescent values were corrected by Equation 2. All titrations were performed at room temperature (25°C) and averages between two trials are reported.

Substance	IC50 (A17 cells) [µM]	Specific enzymatic activity of TrxR [1]	Specific enzymatic activity of TrxR [2]	TrxR residual activity [2] [%]	EB-ct-DNA Ksv (EB-ct-DNA)	ATF Ksv (Human apoTF (ATF))
4,5-dichloro-imidazolate-1yl-gold(I)-(triphenylphosphane) [Compound 6]	14.4 ± 0.7	1.95 ± 0.06 (16 μM) mU/mg	1.51 ± 0.04 (8 μM) mU/mg	49	4.22 ± 0.34 10^3 M^−1	1.51 ± 0.55 10^4 M^−1
4,5-dicyano-imidazolate-1yl-gold(I)-(triphenylphosphane) [Compound 5]	16.2 ± 0.59	1.59 ± 0.03 (16 μM) mU/mg	1.98 ± 0.06 (8 μM) mU/mg	37	1.55 ± 0.34 10^3 M^−1	1.93 ± 0.44 10^4 M^−1
